Like-named read-outs stand apart in the source and are kept apart here.
Key:
[1] = biological target: T1, human AR (androgen receptor) (Homo sapiens, UniProt P10275); assay: Steroid hormone nuclear receptor binding assay (AR binding)
T1 construct: expressed in transfected cells; host or cells: HEK293 cells (lysate, '293-AR lysate')
T1 sequence (P10275 1-920): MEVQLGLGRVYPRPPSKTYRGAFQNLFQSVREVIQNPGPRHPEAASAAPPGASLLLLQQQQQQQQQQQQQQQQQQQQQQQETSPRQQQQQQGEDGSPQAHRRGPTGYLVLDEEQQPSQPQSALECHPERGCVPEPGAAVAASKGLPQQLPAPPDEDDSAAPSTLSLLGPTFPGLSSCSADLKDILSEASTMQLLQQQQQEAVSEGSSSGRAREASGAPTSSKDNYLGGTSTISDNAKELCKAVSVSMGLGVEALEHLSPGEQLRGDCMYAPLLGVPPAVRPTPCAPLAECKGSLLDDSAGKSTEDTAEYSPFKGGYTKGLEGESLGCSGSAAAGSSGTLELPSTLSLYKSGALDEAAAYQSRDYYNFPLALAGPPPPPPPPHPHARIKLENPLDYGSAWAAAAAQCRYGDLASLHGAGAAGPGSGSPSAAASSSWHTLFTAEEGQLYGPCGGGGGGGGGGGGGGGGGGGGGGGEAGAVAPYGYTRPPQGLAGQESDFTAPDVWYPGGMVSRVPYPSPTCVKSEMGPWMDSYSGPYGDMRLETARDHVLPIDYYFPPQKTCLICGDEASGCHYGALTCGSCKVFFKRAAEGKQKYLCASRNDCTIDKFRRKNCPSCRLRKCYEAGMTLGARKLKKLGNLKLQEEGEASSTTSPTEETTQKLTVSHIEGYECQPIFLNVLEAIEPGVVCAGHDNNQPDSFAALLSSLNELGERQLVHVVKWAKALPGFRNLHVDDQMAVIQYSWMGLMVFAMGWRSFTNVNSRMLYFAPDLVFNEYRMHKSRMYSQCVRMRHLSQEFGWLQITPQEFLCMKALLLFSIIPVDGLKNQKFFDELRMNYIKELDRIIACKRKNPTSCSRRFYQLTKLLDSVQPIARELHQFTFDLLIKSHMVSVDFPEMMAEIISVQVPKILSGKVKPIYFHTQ
Protocol: Cell lysates from human embryonic kidney HEK293 cells overexpressing human MR (mineralocorticoid receptor), GR (glucocorticoid receptor), AR (androgen receptor), or PR (progesterone receptor) are used for receptor-ligand competition binding assays to determine Ki values. Typical procedures are provided below
Briefly, steroid receptor competition binding assays are run in a buffer containing 20 mM HEPES buffer (pH=7.6), 0.2 mM EDTA, 75 mM NaCl, 1.5 mM MgCl2, 20% glycerol, 20 mM sodium molybdate, 0.2 mM DTT (dithiothreitol), 20 μg/mL aprotinin and 20 μg/mL leupeptin (assay buffer). […] Assays are typically run in 96-well format. Competing test compounds are added at various concentrations ranging from about 0.01 nM to 10 μM. Non-specific binding is determined in the presence of 500 nM aldosterone for MR binding, 500 nM dexamethasone for GR binding, or 500 nM methyltrienolone for AR and PR binding. […] Plates are mixed for 8 minutes on an orbital shaker at 4° C. The plates are then centrifuged at 3,000 rpm at 4° C. for 10 minutes. An aliquot of 120 μL of the binding reaction mixture is then transferred to another 96-well plate and 175 μL of Wallac Optiphase Hisafe 3™ scintillation fluid is added to each well. Plates are sealed and shaken vigorously on an orbital shaker. After an incubation of 2 hours, plates are read in a Wallac Microbeta counter.
The Kd for [^3H]-aldosterone for MR binding, [^3H]-dexamethasone for GR binding, [^3H]-methyltrienolone for AR binding, or [^3H]-methyltrienolone for PR binding, is determined by saturation binding. The IC50 values for compounds are converted to Ki using the Cheng-Prusoff equation.

[2] = biological target: T2, human androgen receptor (AR) (Homo sapiens, UniProt P10275); assay: C2C12 AR/ARE reporter assay; type: cell-based
T2 construct: expressed in transfected cells; host or cells: mouse myoblast C2C12 cells, transient co-transfection with Fugene
T2 sequence (P10275 1-920): T1 sequence (P10275 1-920)
Protocol: As an indicator of agonist activity in muscle tissue, the C2C12 AR/ARE reporter assay is performed. Briefly, mouse myoblast C2C12 cells are co-transfected using Fugene™ reagent. A reporter plasmid containing a GRE/ARE (glucocorticoid response element/androgen response element) and TK promoter upstream of the luciferase reporter cDNA, is transfected with a plasmid constitutively expressing human androgen receptor (AR) using viral CMV promoter. Cells are transfected in T150 cm^2 flasks in DMEM media with 4% charcoal stripped Fetal Bovine Serum (FBS). After a 5 hour incubation, transfected cells are trypsinized, plated in 96 well dishes in DMEM media containing 4% charcoal-stripped FBS, incubated for 2 h and then exposed to various concentrations of test compounds ranging from about 0.01 nM to 10 μM. After 48 h of incubations with compounds, cells are lysed and luciferase activity is determined by standard techniques. Data is fit to a 4 parameter-fit logistics to determine EC50 values. The % efficacy is determined versus maximum stimulation obtained with 10 nM methyltrienolone.

[3] = test system: castrated (GDX) male Sprague Dawley rats; assay: Model of Efficacy and Selectivity (castrated rats, tissue wet weights); type: in vivo, rat; conditions: eight week treatment; for mean LA wet weight / mean bulbocavernous wet weight / mean prostate wet weight: oral daily
Protocol: Male Sprague Dawley rats (24 weeks old) are castrated (gonadectomized or “GDX”) according to approved procedures and allowed to waste for eight weeks. Age-matched sham-operated […] are also prepared Animals are housed in a temperature-controlled room (24° C.) with a reversed 12 hour light/dark cycle and water and food are available ad libitum.
Animals are randomized based on body weight prior to ascribing a test slot. Compounds of the present invention are administered daily by oral gavage to the castrated thirty two week old rats (body weight about 450-500 g) using a conventional vehicle such as 1% sodium carboxymethylcellulose (CMC)+0.25% Tween 80+0.05% AntiFoam® in sterile H2O. Sham operated rats treated with vehicle alone are used as a treatment positive controls whereas castrated rats treated only with vehicle are used as treatment negative control.
Test animals are dosed daily over a two or eight week timeframe with, for example, 0.3, 1, 2, 3, or 6 mg/kg/day of a compound of the present invention. After the treatment period, animals are sacrificed and the wet weight of the Levator Ani (LA) muscle and the bulbocavernous muscle in each test group may determined and compared to the wet weight of the Levator Ani and the bulbocavernous muscle from the castrated, vehicle-only control group (after weighing, the bulbocavernous muscle may be flash frozen in liquid nitrogen for later use in measuring nitric oxide synthase mRNA, as described below) As an indicator of tissue selective activity, the wet weight of the prostate from test animals may be similarly compared to the wet weight of the prostate from the castrated, vehicle-only group.

[4] = test system: penile nitric oxide synthase (pnNOS) mRNA; assay: pnNOS mRNA by real-time quantitative PCR in bulbocavernosum tissue of treated castrated rats; type: in vivo, rat; conditions: eight weeks
Protocol: (§1) RNA is isolated from frozen bulbous and corpus cavernosum tissues that are obtained at necropsy from castrated Sprague Dawley rats that are prepared and dosed essentially as described above for the Model of Efficacy and Selectivity. cDNA is synthesized from 2 μg of RNA using a high capacity cDNA kit according to the manufacturer's instructions.
(§2) Real-time quantitative PCR is then performed according to the fluorescent TaqMan® methodology (Applied Biosystems). Assays-on-Demand™ (Applied Biosystems) probes are used for the rat […] nitric oxide synthase transcript (eNOS) while probes are designed for the rat penile specific isoform of neuronal nitric oxide synthase (pnNOS) using probe designer software (Applied Biosystems). The probes are designed to span a 102 bp region of the rat neuronal nitric oxide synthase gene (pnNOS) that is specific to pnNOS (positions 2865-2967). MGB™ Primer sequences are 5′CCGGAACCCTTGCGTTT 3′ (SEQ ID NO:1) (forward) and 5′[…] 3′ (SEQ ID NO:2) (reverse) and the probe sequence is 5′CCCGTAAAGGGCCT 3′ (SEQ ID NO:3) (FAM NFQ). Assays-on-Demand™ probe sets for the PPIB transcript are used as an internal control. PCR is performed on an ABI Prism 7700 Sequence Detection System at the following thermocycler conditions: 2 min. at 50° C., 10 min. at 95° C., and 40 cycles at 95° C. for 30 s, and 60° C. for 1 min. All reactions are carried out in triplicate.

[5] = test system: epithelial nitric oxide synthase (eNOS) mRNA; assay: eNOS mRNA by real-time quantitative PCR in corpus cavernosum tissue of treated castrated rats; type: in vivo, rat; conditions: 2 mg/kg/day, two weeks
Protocol: as §1, §2

Question: For `CC(C)OC(=O)N[C@H]1Cc2c(n(C[C@H]3NCC[C@@H]3O)c3ccc(C#N)cc23)C1` [Example 1, [(S)-7-Cyano-4-((2R,3S)-3-hydroxy-pyrrolidin-2-ylmethyl)-1,2,3,4-tetrahydrocyclopenta[b]indol-2-yl]-carbamic acid isopropyl ester], which Ki [1] is on record?
Answer: The Ki was roughly 51 nM.

Question: And the EC50 [2]?
Answer: Its EC50 is roughly 20 nM.

Question: `CC(C)OC(=O)N[C@H]1Cc2c(n(C[C@@H]3[C@@H](O)CCN3C)c3ccc(C#N)cc23)C1` [Example 2, [(S)-7-Cyano-4-((2R,3S)-3-hydroxy-1-methyl-pyrrolidin-2-ylmethyl)-1,2,3,4-tetrahydrocyclopenta[b]indol-2-yl]-carbamic acid isopropyl ester] was tested. Which Ki [1] did it give?
Answer: Its Ki is roughly 11 nM.

Question: And the EC50 [2]?
Answer: Its EC50 is roughly 1 nM.

Question: And the “mean LA wet weight” value ([3]; 0.3 mg/kg)?
Answer: Its value is “about 0.137 g”.

Question: And the “mean bulbocavernous wet weight” value ([3]; 0.3 mg/kg)?
Answer: Its value is “about 0.476 g”.

Question: What about the “mean prostate wet weight” value ([3]; 0.3 mg/kg) of the same compound?
Answer: The value was “about 72.4 mg”.

Question: And the “mean LA wet weight” value ([3]; 1.0 mg/kg)?
Answer: Its value is “about 0.182 g”.

Question: What about the “mean bulbocavernous wet weight” value ([3]; 1.0 mg/kg) of the same compound?
Answer: The value was “about 0.582 g”.

Question: What about the “mean prostate wet weight” value ([3]; 1.0 mg/kg) of the same compound?
Answer: The value was “about 102.8 mg”.

Question: What about the “mean LA wet weight” value ([3]; 3.0 mg/kg) of the same compound?
Answer: The value was “about 0.205 g”.

Question: What about the “mean bulbocavernous wet weight” value ([3]; 3.0 mg/kg) of the same compound?
Answer: Its value is “about 0.698 g”.

Question: And the “mean prostate wet weight” value ([3]; 3.0 mg/kg)?
Answer: The value was “about 147.4 mg”.

Question: What about the “mean LA wet weight” value ([3]; 6.0 mg/kg) of the same compound?
Answer: The value was “about 0.264 g”.

Question: And the “mean bulbocavernous wet weight” value ([3]; 6.0 mg/kg)?
Answer: The value was “about 0.955 g”.

Question: And the “mean prostate wet weight” value ([3]; 6.0 mg/kg)?
Answer: Its value is “about 271.8 mg”.

Question: And the “Levator ani weight in comparison to the castrated control group” value ([3]; 0.3-6.0 mg/kg)?
Answer: Its value is “dose dependent increase”.

Question: What about the “bulbocavernous weight in comparison to the castrated control group” value ([3]; 0.3-6.0 mg/kg) of the same compound?
Answer: Its value is “dose dependent increase”.

Question: What about the pnNOS expression ([4]; 0.3 mg/kg) of the same compound?
Answer: The pnNOS expression was “about 97 % of control”.

Question: And the pnNOS expression ([4]; 1.0 mg/kg)?
Answer: The pnNOS expression was “about 93 % of control”.

Question: What about the pnNOS expression ([4]; 3.0 mg/kg) of the same compound?
Answer: The pnNOS expression was “about 153 % of control”.

Question: And the pnNOS expression ([4]; 6.0 mg/kg)?
Answer: The pnNOS expression was “about 248 % of control”.

Question: And the “penile nitric oxide synthase (pnNOS) mRNA” value ([4]; 0.3-6.0 mg/kg)?
Answer: Its value is “dose dependent increase”.

Question: What about the eNOS expression [5] of the same compound?
Answer: Its eNOS expression is “about 159 % of control”.

Question: With `CC(C)OC(=O)N[C@H]1Cc2c(n(Cc3ccccc3O)c3ccc(C#N)cc23)C1` [Example 9, [(S)-7-Cyano-4-(2-hydroxy-benzyl)-1,2,3,4-tetrahydro-cyclopenta[b]indol-2-yl]-carbamic acid isopropyl ester] as the compound, how does the Ki [1] read?
Answer: Its Ki is roughly 0.8 nM.

Question: What about the EC50 [2] of the same compound?
Answer: Its EC50 is roughly 0.3 nM.

Question: `CC(C)OC(=O)N[C@H]1Cc2c(n(C[C@@H]3N(C)CC[C@@]3(C)O)c3ccc(C#N)cc23)C1` (relative stereo) [Example 6, [(S)-7-Cyano-4-(trans-3-hydroxy-1-methyl-3-methyl-pyrrolidin-2-ylmethyl)-1,2,3,4-tetrahydro-cyclopenta[b]indol-2-yl]-carbamic acid isopropyl ester] was tested. Which EC50 ([2]; mouse myoblast C2C12 cells transfected with human AR, no unit printed for these values, read-out: EC50 in the C2C12 AR/ARE reporter assay) did it give?
Answer: Its EC50 is roughly 0.3 nM.

Reference: patent US8486943B2, “Tetrahydrocyclopenta[b]indole androgen receptor modulators” (Eli Lilly and Company, priority 2008, dated 2013)
